Data: EP2923697B1, “Extract and novel isolated compound from Aspergillus terreus for treatment of mouth microbial infections” (King Saud University, priority 2014, dated 2015)
Values after ≈ are worked out from the molar mass of the structure shown. Values joined by “and” are separate entries in the source; they are usually repeats but may differ in a detail not shown here. Identical values can stand only once.

Key:
Candida parapsilosis [1] = assay: MIC determination, micro-dilution method; assay type: cell-based; settings: Lodderomyces parapsilosis, read-out: Minimum Inhibitory Concentration
Excerpt: (§1) Mouth microbial representatives including unicellular fungi; Candida albicans (RCMB 05382), Candida glabrata (RCMBA 05386), Candida parapsilosis (RCMBA 06002), Candida tropicalis (RCMB 05384), Gram-positive bacteria; Lactobacillus acidophilus (RCMBA 4267), Streptococcus gordonii (RCMBA 2004), Streptococcus mutans (RCMBA 4131), and Gram-negative bacteria; Pseudomonas aeruginosa (RCMBA 1002) were obtained from the Regional Center for Mycology and Biotechnology (RCMB), Al-Azhar University, Cairo, Egypt, as test organisms.
(§2) The minimum inhibitory concentration (MIC) was determined by micro-dilution method using serially diluted (2 folds) extract and isolated compound. MIC of the extract was determined by dilution of extract and isolated compound of concentrations of 0.0-1000 µg/ml. Equal volume of each extract and nutrient broth were mixed in a test tube. Specifically 0.1 ml of standardized inoculum (1-2 X 10^7 CFU/ml) was added in each tube. The tubes were incubated at 37°C for 24-48 h. Two control tubes containing the growth medium, saline and the inoculum were maintained for each test batch. The lowest concentration (highest dilution) of the extract that produced no visible microbial growth (no turbidity) when compared with the control tubes were regarded as MIC.

Candida tropicalis [2] = assay: MIC determination, micro-dilution method; assay type: cell-based; settings: for MIC: read-out: Minimum Inhibitory Concentration
Excerpt: as §1, §2

Candida glabrata [3] = assay: MIC determination, micro-dilution method; assay type: cell-based
Excerpt: as §1, §2

Candida albicans [4] = assay: In-vitro activity in combination with Coe-Comfort tissue conditioner, CFU count; assay type: cell-based; settings: for concentration giving total growth inhibition: C. albicans, in combination with Coe-comfort tissue conditioner; for No. colony-forming units (CPU): Candida albicans, mixed with Coe-Comfort
Method: The Coe-Comfort tissue conditioner was mixed according to the proportions indicated by the manufacturers. In detail, Coe-comfort™ tissue conditioner is formed by dispensing 5 ml of Coe-comfort liquid into a disposable mixing cup. The red measure level is filled with about 6 g of Coe-comfort powder and is then slowly added to the liquid. The obtained mixture is blended for 30 seconds and setted aside for approximately one minute until it flows sluggishly from a spatula. Using less liquid gives a thicker, faster setting mix and vice versa. […] The extract and isolated compound/conditioner mixture was homogenized in a sterile glass beaker for 30 seconds. Immediately afterwards, the conditioning powder was added and mixed for 40 seconds and then poured onto a Petri plate. Once the mixture solidified, the surface was covered with 4 ml of Sabouraud agar, and after 30 minutes, inoculated with 20 µl of an appropriate dilution of Candida. The plates were incubated at 37°C for 24 hours and then the CFUs were counted. The experiment was performed in triplicate. For the conditioner Coe-Comfort, the control was unmodified conditioner.

Candida parapsilosis [5] = assay: Antimicrobial activity, well diffusion method; assay type: cell-based; settings: 5mg/ml of sample around well (6 mm), mean ± Standard deviation
Excerpt: (§3) Mouth microbial representatives including unicellular fungi; Candida albicans (RCMB 05382), Candida glabrata (RCMBA 05386), Candida parapsilosis (RCMBA 06002), Candida tropicalis (RCMB 05384), Gram-positive bacteria; Lactobacillus acidophilus (RCMBA 4267), Streptococcus gordonii (RCMBA 2004), Streptococcus mutans (RCMBA 4131), and Gram-negative bacteria; Pseudomonas aeruginosa (RCMBA 1002) were obtained from the Regional Center for Mycology and Biotechnology (RCMB), Al-Azhar University, Cairo, Egypt, as test organisms. Antimicrobial activity was determined by the well diffusion method. Petri plates contained 20 ml of Nutrient (for bacteria) or Malt extract (for fungi). Agar medium were seeded with 1-3 day cultures of microbial inoculums (1-2 X 10^7 CFU/ml). […] The assessment of antimicrobial activity was based on measurement of the diameter of the inhibition zone formed around the well.

Candida albicans [6] = assay: Antimicrobial activity, well diffusion method; assay type: cell-based; settings: 5mg/ml of sample around well (6 mm), mean ± Standard deviation
Excerpt: as §3

Candida tropicalis [7] = assay: Antimicrobial activity, well diffusion method; assay type: cell-based; settings: 5mg/ml of sample around well (6 mm), mean ± Standard deviation
Excerpt: as §3

Candida glabrata [8] = assay: Antimicrobial activity, well diffusion method; assay type: cell-based; settings: 5mg/ml of sample around well (6 mm), mean ± Standard deviation
Excerpt: as §3

Streptococcus gordonii [9] = assay: In-vitro activity in combination with Coe-Comfort tissue conditioner; assay type: cell-based
Streptococcus mutans [10] = assay: MIC determination, micro-dilution method; assay type: cell-based; settings: read-out: Minimum Inhibitory Concentration
Excerpt: as §1, §2

Candida albicans [11] = assay: MIC determination, micro-dilution method; assay type: cell-based; settings: read-out: Minimum Inhibitory Concentration
Excerpt: as §1, §2

[12] = system: Lactobacillus acidophilus; assay: MIC determination, micro-dilution method; assay type: cell-based
Excerpt: as §1, §2

Streptococcus gordonii [13] = assay: MIC determination, micro-dilution method; assay type: cell-based; settings: read-out: Minimum Inhibitory Concentration
Excerpt: as §1, §2

Pseudomonas aeruginosa [14] = assay: MIC determination, micro-dilution method; assay type: cell-based; settings: read-out: Minimum Inhibitory Concentration
Excerpt: as §1, §2

[15] = Sub-chronic toxicity, liver and kidney function; assay type: in vivo, Male Wister rats; settings: rats; oral daily for 15 days; extract 500 mg/kg, isolated compound 50 mg/kg; serum 6 hr after the last dose
Method: Male Wister rats (150-180 g) were divided into 3 equal groups each of 10 rats. Rats of the 1st group received the vehicle in a dose of 5 mL/kg and left as normal control. Rats of the 2nd and 3rd groups were administered the ethanolic extract of the investigated fungi (500 mg/kg) and the isolated compound (50 mg/kg). All medications were administered orally daily for 15 consecutive days. Animals were maintained under identical conditions with food and water ad libitum for the entire period with close observation. At the end of the experimental period, blood samples were collected from the orbital plexus of rats, 6 hr after the last dose. Samples were left to clot at room temperature for 20 min. The obtained sera were collected and used to determine the activity of AST and ALT. Levels of urea and creatinine were also estimated.

Streptococcus mutans [16] = assay: Antimicrobial activity, well diffusion method; assay type: cell-based; settings: 5mg/ml of sample around well (6 mm), mean ± Standard deviation
Excerpt: as §3

[17] = system: Lactobacillus acidophilus; assay: Antimicrobial activity, well diffusion method; assay type: cell-based; settings: 5mg/ml of sample around well (6 mm), mean ± Standard deviation
Excerpt: as §3

Streptococcus gordonii [18] = assay: Antimicrobial activity, well diffusion method; assay type: cell-based; settings: 5mg/ml of sample around well (6 mm), mean ± Standard deviation
Excerpt: as §3

Pseudomonas aeruginosa [19] = assay: Antimicrobial activity, well diffusion method; assay type: cell-based; settings: 5mg/ml of sample around well (6 mm), mean ± Standard deviation
Excerpt: as §3

[20] = system: Lactobacillus acidophilus; assay: In-vitro activity in combination with Coe-Comfort tissue conditioner, CFU count; assay type: cell-based; settings: for No. colony-forming units (CFU): mixed with Coe-Comfort
S. mutans = assay: In-vitro activity in combination with Coe-Comfort tissue conditioner; assay type: cell-based, Streptococcus mutans

C[C@@H]1[C@H](O)[C@@H](C)/C=C/C=C/C=C/C=C/C=C/C=C/C=C/[C@H](O[C@@H]2O[C@H](C)[C@@H](O)[C@H](N)[C@@H]2O)C[C@@H]2O[C@](O)(C[C@@H](O)C[C@@H](O)[C@H](O)CC[C@@H](O)C[C@@H](O)CC(=O)O[C@H]1C)C[C@H](O)[C@H]2C(=O)O [Amphotericin B, reference compound]
MIC (Candida parapsilosis [1]): 0.49 mg/L (≈ 0.53 µM)
MIC (Candida tropicalis [2]): 0.12 mg/L (≈ 0.13 µM)
MIC (Candida glabrata [3]; Nakaseomyces glabratus, read-out: Minimum Inhibitory Concentration): 1.95 mg/L (≈ 2.11 µM)
concentration giving total growth inhibition (Candida albicans [4]): 7.81 µg/mL
No. colony-forming units (CPU) (Candida albicans [4]; concentration 000.49 µg/ml): 9.1 x 10^4
No. colony-forming units (CPU) (Candida albicans [4]; concentration 000.98 µg/ml): 8.9 x 10^4
No. colony-forming units (CPU) (Candida albicans [4]; concentration 001.95 µg/ml): 9.3 x 10^3
No. colony-forming units (CPU) (Candida albicans [4]; concentration 003.90 µg/ml): 8.1 x 10^2
No. colony-forming units (CPU) (Candida albicans [4]; concentration 007.81 µg/ml): 00.00
No. colony-forming units (CPU) (Candida albicans [4]; concentration 015.63 µg/ml): 00.00
No. colony-forming units (CPU) (Candida albicans [4]; concentration 031.25 µg/ml): 00.00
No. colony-forming units (CPU) (Candida albicans [4]; concentration 062.50 µg/ml): 00.00
Diameter of inhibition zone (Candida parapsilosis [5]): 23.2 ± 0.53 mm
Diameter of inhibition zone (Candida albicans [6]): 21.3± 0.14 mm
Diameter of inhibition zone (Candida tropicalis [7]): 24.6± 0.27 mm
Diameter of inhibition zone (Candida glabrata [8]): 20.4± 0.87 mm

C/C=C(/C)C1CCC2C(C1)CC(C)C1C2C=C(C)C2C3CC(C=C(C)C)CC3C(O)CC21 (stereo not drawn) [Isolated compound, 9-((Z)-but-2-en-2-yl)-2,3,3a,4,5,5a;5b,6,7,7a,8,9,10,11,11a,11b,13a,13b-octadecahydro-6,13-dimethyl-2-(2-methylprop-1-enyl)-1H-cyclopenta[a]chrysen-4-ol]
concentration giving total growth inhibition (Streptococcus gordonii [9]): 62.50 µg/mL and 62.5 µg/mL
MIC (Streptococcus mutans [10]): 0.98 mg/L (≈ 2.24 µM)
MIC (Candida parapsilosis [1]): 1.95 mg/L (≈ 4.47 µM)
MIC (Candida albicans [11]): 7.81 mg/L (≈ 17.9 µM)
Minimum Inhibitory Concentration [12]: 000.24 µg/mL
MIC ([12]; read-out: Minimum Inhibitory Concentration): 0.24 mg/L (≈ 0.55 µM)
Minimum Inhibitory Concentration (Candida tropicalis [2]): 000.49 µg/mL
MIC (Candida tropicalis [2]): 0.49 mg/L (≈ 1.12 µM)
Minimum Inhibitory Concentration (Candida glabrata [3]; Candida glabrata): 000.00 µg/mL
MIC (Streptococcus gordonii [13]): 3.9 mg/L (≈ 8.93 µM)
MIC (Pseudomonas aeruginosa [14]): 15.6 mg/L (≈ 35.8 µM)
concentration giving total growth inhibition (Candida albicans [4]): 7.81 µg/mL
No. colony-forming units (CPU) (Candida albicans [4]; concentration 000.24 µg/ml): 9.1 x 10^4
No. colony-forming units (CPU) (Candida albicans [4]; concentration 000.49 µg/ml): 5.2 x 10^4
No. colony-forming units (CPU) (Candida albicans [4]; concentration 000.98 µg/ml): 6.3 x 10^3
No. colony-forming units (CPU) (Candida albicans [4]; concentration 001.95 µg/ml): 1.0 x 10^3
No. colony-forming units (CPU) (Candida albicans [4]; concentration 003.90 µg/ml): 2.3 x 10^2
No. colony-forming units (CPU) (Candida albicans [4]; concentration 007.81 µg/ml): 00.00
No. colony-forming units (CPU) (Candida albicans [4]; concentration 015.63 µg/ml): 00.00
No. colony-forming units (CPU) (Candida albicans [4]; concentration 031.25 µg/ml): 00.00
No. colony-forming units (CPU) (Candida albicans [4]; concentration 062.50 µg/ml): 00.00
effect on the activity of alanine aminotransferase (ALT) [15]: did not show any significant effect
effect on the activity of aspirate aminotransferase (AST) [15]: did not show any significant effect
effect on the levels of blood urea [15]: did not show any significant effect
effect on the levels of serum creatinine [15]: did not show any significant effect
Diameter of inhibition zone (Streptococcus mutans [16]): 22.1± 0.72 mm
Diameter of inhibition zone (Candida parapsilosis [5]): 21.3 ± 0.58 mm
Diameter of inhibition zone (Candida albicans [6]): 19.3 ± 0.63 mm
Diameter of inhibition zone [17]: 23.9 ± 0.37 mm
Diameter of inhibition zone (Candida tropicalis [7]): 22.4 ± 0.58 mm
Diameter of inhibition zone (Candida glabrata [8]): 00.0 mm
Diameter of inhibition zone (Streptococcus gordonii [18]): 20.3 ± 0.72 mm
Diameter of inhibition zone (Pseudomonas aeruginosa [19]): 18.2± 0.63 mm
concentration giving total growth inhibition ([20]; in combination with Coe-comfort tissue conditioner): 7.81 µg/mL
No. colony-forming units (CFU) ([20]; concentration 000.24 µg/ml): 8.2 x 10^5
No. colony-forming units (CFU) ([20]; concentration 000.49 µg/ml): 9.7 x 10^4
No. colony-forming units (CFU) ([20]; concentration 000.98 µg/ml): 4.8 x 10^4
No. colony-forming units (CFU) ([20]; concentration 001.95 µg/ml): 3.4 x 10^3
No. colony-forming units (CFU) ([20]; concentration 003.90 µg/ml): 4.1 x10^2
No. colony-forming units (CFU) ([20]; concentration 007.81 µg/ml): 00.00
No. colony-forming units (CFU) ([20]; concentration 015.63 µg/ml): 00.00
No. colony-forming units (CFU) ([20]; concentration 031.25 µg/ml): 00.00
No. colony-forming units (CFU) ([20]; concentration 062.50 µg/ml): 00.00
concentration giving total growth inhibition (S. mutans): 125 µg/mL
